Data: patent US6268377A, “Method for treating androgen-related conditions” (Merck & Co., Inc., priority 1999, dated 2001)
“Also recorded” adds a separate entry of the source. Read-outs that look alike come from different tables or passages of the source.

Tests used:
5α-reductase 2 = conditions: isozyme predominating in the prostate, cited from earlier work
[1] = system: men with clinical benign prostatic hyperplasia (BPH); experiment: Four-year double-blind placebo-controlled clinical study of finasteride, analysed by concomitant calcium channel blocker use; assay type: in vivo, human; conditions: for Hazard Ratio (95% CI), AUR / Hazard Ratio (95% CI), Precipitated AUR / Hazard Ratio (95% CI), Spontaneous AUR / Hazard Ratio (95% CI), Surgery / Hazard Ratio (95% CI), Surgery and AUR: finasteride vs placebo; for Urologic events: AUR (incidence) / Urologic events: Precipitated AUR (incidence) / Urologic events: Spontaneous AUR (incidence) / Urologic events: Surgery (incidence) / Urologic events: Surgery and AUR (incidence): 5 mg finasteride daily, four-year study
Procedure: A total of 3040 men with clinical benign prostatic hyperplasia (BPH) diagnosed on the basis of moderate-to-severe symptoms, a decreased peak urinary flow rate (less than 15 mL/sec with a voided volume of 150 mL or more) and an enlarged prostate gland by digital rectal examination (DRE) were enrolled in a four-year study comparing finasteride with placebo. Men receiving alpha blocking agents or antiandrogens, and men with a history of chronic prostatitis, recurrent urinary tract infections, prostate or bladder cancer or surgery, or a serum prostate specific antigen (PSA) over 10 ng/mL were excluded. Men with serum PSA concentrations between 4.0 and 9.9 ng/mL had to have a negative prostate biopsy prior to enrollment.
After a one-month single-blind placebo lead-in, men were randomly assigned to receive placebo or 5 mg of finasteride (17β-(N-tert-butylcarbamoyl)-3-oxo-4-aza-5α-androst-1-en-3-one)daily in a four year, double-blind placebo-controlled study. BPH-related outcomes including symptoms, bothersomeness, adverse events and urinary flow rates, were assessed every 4 months. Serum PSA was measured every 4 months in the first year and then every 8 months at a central laboratory. Physical examination and routine hematological and serum chemistry tests were performed yearly. Magnetic resonance imaging (MRI) was performed at baseline and subsequently yearly in a subset of 10% of patients. All MRI images were read by a central radiologist blinded to treatment allocation and time of imaging.
Acute urinary retention (AUR) and surgery for BPH were predefined secondary end-points. The endpoint committee, blinded to treatment group, reviewed all study-related documents related to episodes of acute urinary retention, and all prostate surgeries for BPH, excluding surgery for prostate cancer. The endpoint committee classified episodes of AUR as spontaneous versus precipitated (when contributing factors such as urinary tract infection, surgery anesthesia, ingestion of alpha sympathomimetic drugs or anticholinergics were identified).
For a relatively clean comparison, data from patients in categories (a) and (b) were analyzed and patients in category (c) were excluded.

5α-reductase 1 = conditions: isozyme predominating in sebaceous glands of facial and skin tissue; G. Harris et al. 1992; cited from earlier work
[2] = finasteride treated patients also on calcium channel blockers vs not on calcium channel blockers
[3] = patients who did not take a calcium channel blocker
[4] = patients who took a calcium channel blocker for more than 365 days
[5] = patients who did not take a calcium channel blocker, N = 1181
[6] = patients who took a calcium channel blocker for more than 365 days, N = 236

**Q.** For CC(C)(C)NC(=O)[C@H]1CC[C@H]2[C@@H]3CC[C@H]4NC(=O)C=C[C@]4(C)[C@H]3CC[C@]12C [Finasteride, 17β-(N-tert-butylcarbamoyl)-3-oxo-4-aza-5α-androst-1-ene-3-one], which “inhibition of 5α-reductase type 2 (human prostate enzyme)” value (5α-reductase 2) is on record?
**A.** The value was “potent inhibitor”.

**Q.** What about the “inhibition of 5α-reductase type 2 (human prostate enzyme)” value (5α-reductase 2; listed as finasteride) of the same molecule?
**A.** The value was “potently inhibited”.

**Q.** And the “rate of improvement in symptom score by month 16” value ([1]; finasteride only group)?
**A.** The value was “continued to increase”.

**Q.** What about the “change of PSA (prostate specific antigen) versus time in the study” value ([1]; finasteride plus calcium channel blocker for more than 365 days, compared with finasteride only and placebo groups (FIG. 1)) of the same molecule?
**A.** The value was “greater decrease in PSA; also recorded: greatest decrease in PSA”.

**Q.** And the “change in Quasi-AUA symptom score versus time in the study” value ([1]; finasteride plus calcium channel blocker for more than 365 days, compared with finasteride only and placebo groups (FIG. 2))?
**A.** Its value is “initally improved much faster; also recorded: greatest decrease in symptom score”.

**Q.** And the “change in maximum urinary flow rate versus time in the study” value ([1]; finasteride plus calcium channel blocker for more than 365 days, compared with finasteride only and placebo groups (FIG. 3))?
**A.** Its value is “greater increase in maximum urinary flow rate; also recorded: greatest increase in maximum flow rate after 12 months”.

**Q.** What about the “change in prostate volume versus time in the study” value ([1]; finasteride plus calcium channel blocker for more than 365 days, compared with finasteride only and placebo groups (FIG. 4)) of the same molecule?
**A.** Its value is “greater decrease; also recorded: greatest decrease in prostate volume”.

**Q.** What about the “rate of improvement in symptom score by month 16” value ([1]; finasteride plus calcium channel blocker group) of the same molecule?
**A.** The value was “decreased rate of improvement in symptom score”.

**Q.** What about the “incidence of spontaneous acute urinary retention (AUR) (comparison)” value [1, 2] of the same molecule?
**A.** Its value is “lower”.

**Q.** And the “incidence of urologic surgery (comparison)” value [1, 2]?
**A.** Its value is “lower”.

**Q.** What about the “Hazard Ratio (95% CI), AUR” value [1, 3] of the same molecule?
**A.** The value was 0.44 (0.30 to 0.64).

**Q.** And the “Hazard Ratio (95% CI), Precipitated AUR” value [1, 3]?
**A.** The value was 0.55 (0.31 to 0.99).

**Q.** What about the “Hazard Ratio (95% CI), Spontaneous AUR” value [1, 3] of the same molecule?
**A.** Its value is 0.38 (0.23 to 0.62).

**Q.** And the “Hazard Ratio (95% CI), Surgery” value [1, 3]?
**A.** The value was 0.42 (0.31 to 0.57).

**Q.** And the “Hazard Ratio (95% CI), Surgery and AUR” value [1, 3]?
**A.** The value was 0.48 (0.37 to 0.62).

**Q.** And the “Hazard Ratio (95% CI), AUR” value [1, 4]?
**A.** The value was 0.46 (0.20 to 1.10).

**Q.** What about the “Hazard Ratio (95% CI), Precipitated AUR” value [1, 4] of the same molecule?
**A.** Its value is 0.50 (0.19 to 1.31).

**Q.** And the “Hazard Ratio (95% CI), Spontaneous AUR” value [1, 4]?
**A.** The value was 0.24 (0.05 to 1.21).

**Q.** And the “Hazard Ratio (95% CI), Surgery” value [1, 4]?
**A.** Its value is 0.55 (0.25 to 1.22).

**Q.** And the “Hazard Ratio (95% CI), Surgery and AUR” value [1, 4]?
**A.** Its value is 0.53 (0.28 to 1.00).

**Q.** And the “Urologic events: AUR (incidence)” value [1, 5]?
**A.** Its value is 2.6%.

**Q.** What about the “Urologic events: Precipitated AUR (incidence)” value [1, 5] of the same molecule?
**A.** Its value is 1.4%.

**Q.** And the “Urologic events: Spontaneous AUR (incidence)” value [1, 5]?
**A.** The value was 1.4%.

**Q.** And the “Urologic events: Surgery (incidence)” value [1, 5]?
**A.** The value was 4.4%.

**Q.** What about the “Urologic events: Surgery and AUR (incidence)” value [1, 5] of the same molecule?
**A.** The value was 6.4%.

**Q.** And the “Urologic events: AUR (incidence)” value [1, 6]?
**A.** Its value is 3.0%.

**Q.** And the “Urologic events: Precipitated AUR (incidence)” value [1, 6]?
**A.** The value was 2.5%.

**Q.** What about the “Urologic events: Spontaneous AUR (incidence)” value [1, 6] of the same molecule?
**A.** Its value is 0.4%.

**Q.** What about the “Urologic events: Surgery (incidence)” value [1, 6] of the same molecule?
**A.** The value was 3.8%.

**Q.** And the “Urologic events: Surgery and AUR (incidence)” value [1, 6]?
**A.** Its value is 5.9%.

**Q.** What about the “sensitivity of 5α-reductase type 1 to finasteride” value (5α-reductase 1) of the same molecule?
**A.** The value was “relatively insensitive”.
